Data on six compounds can be found in US10118922B2 (Janssen Pharmaceutica NV, priority 2013, dated 2018).

Assay [1] relates to C57B16 mice on a high fat diet. The assay can be described thus: GPR120 DIO mice OGTT screening. It counts as in vivo, mouse. Conditions: dosed 30 min prior to glucose PO. As to the method:
18-22 week old, C57B16 mice on a high fat diet (60% HFD) for 12-16 weeks (ave. body weight ˜37-41 g) were fasted for 6 hr, with removal of food occurring at 7 am on the morning of the study. The animals were sorted into treatment groups the day before the study by body weight. Animals outside the bounds of ˜30-50 g were left out of the study. The animals had been handled and shammed a total of 5-8 days (1-3 days immediately prior to the study). Glucose (in 1 mL syringes) was drawn up the morning of the study. Test compounds were kept spinning and were only drawn into 1 ml syringes prior to study commencement. Animals were bled via tail snip to determine basal glucose levels prior to dosing of treatments. An Ascensia BREEZE Blood Glucose Monitoring System by Bayer was used for determining glucose levels.
Animals were moved into the testing room at ˜9-11 am, to yield them time to acclimate. The bleeds and dosing started at approximately 1 pm in 30-second intervals per animal. All groups were dosed 30 minutes prior to glucose administration at a dose volume of 10 ml/kg (the dose volume was calculated separately for each individual animal). Test compounds were administered at one or more of the following dosages: 0.1 mg/kg, 0.3 mg/kg, 1 mg/kg, 3 mg/kg and 10 mg/kg.
Thirty minutes after the first dose (with test compound) animals were bled again for a second baseline, or T=0, and immediately dosed with glucose (20% solution; TEKNOVA, 250 ml sterile bottle w/ catalogue number G0525) via a PO injection. The exact dose volume for glucose was also calculated separately for each individual animal.
Blood glucose was measured at 15, 30, 45, 60, and 90 minutes post-glucose administration via the snipped tail. If an animal reached a value of “HI”, the upper limit of the glucometer (600 mg/dl) was substituted as the blood glucose value and the study was analyzed as normal with no exclusions. If 50% or more of any treatment group reaches a “HI” value at least once, the study was considered invalid and repeated. Glucose values were typed into an EXCEL spreadsheet where they were used to calculate glucose AUC and delta AUC post-compound and post-glucose. The glucose excursion curves and the different versions of the AUC's were graphed in GraphPad Prism 5.
Note: All statistics completed in this study were completed using the statistical software package GraphPad Prism 5. Standard procedures for analyzing data sets from screening GPR120 compounds in DIO mouse OGTT's were as listed here below. In addition to the statistics that were run using GraphPad Prism 5, Microsoft Excel was used to calculate the percent changes in AUC from vehicle groups as detailed below.
Change from −30 to 0 BSLN Glucose, Raw Glucose AUC −30 to 90 min, Delta Glucose AUC −30 to 90 min, Raw Glucose AUC 0 to 90 min, Delta Glucose AUC 0 to 90 min were analyzed using Column Statistics Analysis, with mean values used to calculate % change from the vehicle mean group, as well as mean, SEM and/or % change from vehicle, where appropriate; and using One-Way ANOVA w/ a Tukey Post-Test (Comparing All Pairs of Columns) with each treatment group examined to see if it was statistically significant compared to vehicle (*=P<0.05, **=P<0.01, ***=P<0.001).

In a further assay the test system is C57b16 mouse. The assay can be described thus: C57b16 mouse OGTT. It counts as in vivo. Conditions: dosed 30 min prior to glucose PO 3 g/kg. Here is the method:
(§1) Male, C57bl/6J Mice were ordered in at 8 weeks of age from Jackson Labs. Individual mice weighed anywhere in the range of 25-30 grams on study day. The mice were fasted, with removal of food occurring at 7 am on the morning of the study. Animals were moved into the room at 10:00 am, to give them time to acclimate. Glucose (insulin syringes) was drawn up either the night before or the morning of the study. Glucose was dosed (IP) at 1.5 g/kg at 7.5 ml/kg (20% glucose straight TEKNOVA, 250 ml sterile bottle w/ catalogue number G0525). Test compounds were kept spinning and were only drawn into the syringes prior to study commencement. Animals were bled via tail snip to determine basal glucose levels prior to dosing of treatments. An Ascensia BREEZE Blood Glucose Monitoring System by Bayer (using unique 10-test disks) was used for determining glucose levels. The bleeds started at approximately 12:45 pm and dosing started, at 1-minute intervals, immediately after. All groups were dosed 30 minutes prior to glucose administration at a dose volume of 10 ml/kg (the dose volume was calculated separately for each individual animal). Thirty minutes after the first dose animals were bled again for a second baseline, or T=0, and immediately dosed with glucose via an i.p. injection. The exact dose volume for glucose was also calculated separately for each individual animal. Glucose measurements were taken at −30 min prior to compound dose, at t=0 (immediately prior to glucose dose), and at 15, 30, 45, 60, 90 min post glucose dose.
(§2) Glucose values were entered into an Excel sheet and graphed in GraphPad Prism. The following were calculated from Prism: Change from −30 to 0 BSLN Glucose, Raw Glucose AUC −30 to 90 min, Delta Glucose AUC −30 to 90 min, Raw Glucose AUC 0 to 90 min, Delta Glucose AUC 0 to 90 min.
The assay design is the same as that described above for the C57b16 mouse IPGTT. The difference is that glucose was dosed PO at 3 g/kg, 7.5 ml/kg of 40% glucose.

The test system of a further assay is C57bl/6J Mice. Kind of assay: GPR120 C57bl6 mouse IPGTT. The assay is classed as in vivo. To be noted: 3 mg/kg, dosed 30 min prior to glucose IP 1.5 g/kg. Here is the method: as §1, §2

Structures are written as SMILES.

With `Cc1ccc(-c2nsc(C(F)(F)F)c2COc2c(F)cc(CC(C)C(=O)O)cc2F)c(F)c1` (centres unmarked) [Cpd 76, 3-(3,5-difluoro-4-[[3-(2-fluoro-4-methylphenyl)-5-(trifluoromethyl)-1,2-thiazol-4-yl]methoxy]phenyl)-2-methylpropanoic acid], the “DIO Lowering Glucose AUC (−30 to 90) @ 10 mg/kg” value (“DIO Lowering Glucose AUC” below) in assay [1] is given as −0.8. Turning to `O=C(O)CCc1cc(F)c(OCc2c(C3CCCC3)nsc2C(F)(F)F)c(F)c1` [Cpd 71, 3-(4-[[3-cyclopentyl-5-(trifluoromethyl)-1,2-thiazol-4-yl]methoxy]-3,5-difluorophenyl)propanoic acid], the “C57 OGTT 3 mg/kg” value in the assay with C57b16 mouse is on record as −37. In addition, the “DIO Lowering Glucose AUC” value in assay [1] is reported as −0.52. For the same compound, in the assay on C57bl/6J Mice, the “C57 IPGTT 3 mg/kg” value is reported as −14. As to `CCc1ccc(-c2nsc(C(F)(F)F)c2COc2ccc(CCC(=O)O)c(F)c2F)cc1` [Cpd 73, 3-(4-((3-(4-ethylphenyl)-5-(trifluoromethyl)isothiazol-4-yl)methoxy)-2,3-difluorophenyl)propanoic acid], in assay [1], the “DIO Lowering Glucose AUC” value was −0.51. `Cc1ccc(-c2nsc(C(F)(F)F)c2COc2c(F)cc(CCC(=O)O)cc2F)c(F)c1` [Cpd 65, 3-(3,5-difluoro-4-[[3-(2-fluoro-4-methylphenyl)-5-(trifluoromethyl)-1,2-thiazol-4-yl]methoxy]phenyl)propanoic acid]: the “DIO Lowering Glucose AUC” value in assay [1] was −0.61.

With `O=C(O)CCc1cc(F)c(OCc2c(-c3ccc(Cl)c(F)c3)nsc2C(F)(F)F)c(F)c1` [Cpd 67, 3-(4-((3-(4-chloro-3-fluorophenyl)-5-(trifluoromethyl)isothiazol-4-yl)methoxy)-3,5-difluorophenyl)propanoic acid], the “DIO Lowering Glucose AUC” value in assay [1] is reported as −0.78.

In the case of `O=C(O)CCc1cc(F)c(OCc2c(-c3ccc(Cl)cc3F)nsc2C(F)(F)F)c(F)c1` [Cpd 74, 3-(4-((3-(4-chloro-2-fluorophenyl)-5-(trifluoromethyl)isothiazol-4-yl)methoxy)-3,5-difluorophenyl)propanoic acid], in assay [1], the “DIO Lowering Glucose AUC” value is −0.71.
